In PMC4789278, “Pharmacological inhibition of LSD1 for the treatment of MLL-rearranged leukemia” (Journal of Hematology & Oncology, 2016):
“Also recorded” adds a separate entry of the source.

What was measured:
MV4-11 leukemia cells = assay: Antiproliferation assay (XTT), MV4-11; format: cell-based; settings: Homo sapiens, MV4-11, 360 h; 15-day treatment; MLL-rearranged leukemia; read-out: MV4-11 EC50 (antiproliferative)
Protocol: Next, these three compounds were tested for their cellular activity against proliferation of MV4-11 leukemia cells bearing MLL-AF4 fusion oncogene.
(§1) These compounds were incubated with a panel of six human leukemia and solid tumor cell lines, including two MLL-rearranged leukemia cells MV4-11 and Molm-13 containing fusion oncogenes MLL-AF4 and -AF9, respectively. […] Also included in the studies are breast cancer MCF-7 and prostate cancer LNCaP cells.
(§2) Proliferation inhibition assay for suspension leukemia cells was performed using an XTT assay kit (Roche) with our previously described method. Proliferation inhibition assay for solid tumor cell lines MCF-7 and LNCaP was performed using our previous described MTT assay. The antiproliferation EC50 values were determined by Prism, and the reported results were the mean values of at least three independent experiments.

Molm-13 leukemia cells = assay: Antiproliferation assay (XTT), Molm-13; format: cell-based; settings: Homo sapiens, MOLM-13, 360 h; 15-day treatment; MLL-rearranged leukemia; read-out: Molm-13 EC50 (antiproliferative)
Protocol: as §1, §2

[1] = test system: breast cancer MCF-7 cells; assay: Antiproliferation assay (MTT), MCF-7; format: cell-based; settings: Homo sapiens, MCF7, 360 h, 15-day treatment, read-out: MCF-7 EC50 (antiproliferative)
Protocol: as §1, §2

[2] = Toxicity in mice (weight, blood test); format: in vivo
Excerpt: Continuous infusion of 1 using a subcutaneously implanted osmotic pump was used for in vivo studies to avoid the unfavorable pharmacokinetics because this route may provide a stable plasma drug concentration.

MV4-11 leukemia = assay: Systemic mouse model of MV4-11 leukemia
Excerpt: A mouse model of systemic MV4-11 leukemia was established by injecting 10^7 MV4-11 cells/mouse intravenously through the tail veil into NOD-SCID mice with an engraftment rate of 100 %. After 2 weeks, human CD33^+/CD45^+ leukemia cells (0.1–0.5 %) can be detected by FACS in blood samples of the mice. The disease progressed rapidly, causing deaths in ~6 weeks after leukemia transplantation. Thus, upon detection of MV4-11 engraftments, mice were randomly separated into treatment and control groups.
NOD-SCID mice (4 to 6 weeks old) were obtained from Jackson lab (Bar Harbor, ME, USA) and maintained under specific pathogen-free conditions; 10^7 MV4-11 cells/mouse were injected intravenously through the tail veil, and animal weights were monitored twice a week. After 2 weeks when the blood samples showing 0.1–0.5 % CD45+/CD33+ human leukemia cells, mice were randomly segregated into control and treatment groups. […] Animals were sacrificed when >20 % weight loss, hunched posture, ruffled fur, or inactivity was observed. The peripheral blood, spleen, and bone marrow cells were isolated and tested for CD45^+/CD33^+ using FACS. Log-rank analysis was used to determine statistical significance of the survival curves using Prism 5.0.

Compound: CN1CCN(C(=O)CNC2CC2c2ccc(OCc3ccccc3)cc2)CC1 (stereo not drawn) [Compound 1]
- EC50 (MV4-11 leukemia cells): 0.01 µM
- EC50 (Molm-13 leukemia cells): 0.096 µM
- EC50 [1]: 1.6 µM
- weight losses and visible signs of toxicity ([2]; 2.5 and 5 mg/kg/day for 28 days, osmotic pump): did not cause weight losses as well as any visible signs of toxicity
- blood cell counts and hemoglobin vs control ([2]; blood test on day 28): no significant differences; also recorded: no significant changes in blood cell counts
- less leukemia cells in the blood (MV4-11 leukemia; 2.5 mg/kg/day for 28 days): 92%
- less leukemia cells in the spleen (MV4-11 leukemia; 2.5 mg/kg/day for 28 days): 81%
- reduction of MV4-11 leukemia cells in the bone marrow (MV4-11 leukemia; 2.5 mg/kg/day for 28 days): 80%
- human CD33+/CD45+ leukemia cells in the bone marrow (average) (MV4-11 leukemia; 2.5 mg/kg/day for 28 days, control 33.6 %): 6.7%
- median survival (MV4-11 leukemia; 2.5 mg/kg/day for 28 days, control 34.5 days): 43 days
- inhibition of leukemia burdens in the bone marrow, spleen, and peripheral blood (MV4-11 leukemia; 5 mg/kg): > 89%
- inhibition rate in the blood (MV4-11 leukemia; 5 mg/kg/day for 28 days): 99%
- inhibition rate in the bone marrow (MV4-11 leukemia; 5 mg/kg/day for 28 days): 96%
- inhibition rate in the spleen (MV4-11 leukemia; 5 mg/kg/day for 28 days): 89%
- median survival (MV4-11 leukemia; 5 mg/kg/day for 28 days, control 45 days): 60 days
